Test results: PubChem BioAssay AID330 (DTP/NCI, 2004)
“And” between values parts separate entries of the source, which are not always exact repeats. Equal entries are not always repeated. Inconclusive results and toxic doses are left out. Rule for the calls: active = survival T/C of 150% or more; inactive = T/C below 125% in these data.

System: P388 leukemia ip, CD2F1 mice, survival T/C
Experiment: NCI In Vivo Anticancer Drug Screen. Data for tumor model P388 Leukemia (intraperitoneal) in CD2F1 (CDF1) mice
Settings: endpoint: median survival time, higher = longer survival
How it was run: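 Mice carrying the transplanted tumor received test compound or vehicle. Survival was recorded in each group, and the value is the treated-group measurement divided by that of the vehicle-treated control group.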

[1] = dose: 50.0 mg/kg/injection, schedule: Q04DX002 (ip), vehicle: saline with Tween-80
[2] = dose: 100.0 mg/kg/injection, schedule: Q04DX002 (ip), vehicle: saline with Tween-80
[3] = dose: 200.0 mg/kg/injection, schedule: Q04DX002 (ip), vehicle: saline with Tween-80
[4] = dose: 50.0 mg/kg/injection, schedule: Q01DX005 (ip), vehicle: Klucel (hydroxypropylcellulose) (HPC)
[5] = dose: 100.0 mg/kg/injection, schedule: Q01DX005 (ip), vehicle: Klucel (hydroxypropylcellulose) (HPC)
[6] = dose: 200.0 mg/kg/injection, schedule: Q01DX005 (ip), vehicle: Klucel (hydroxypropylcellulose) (HPC)
[7] = dose: 60.0 mg/kg/injection, schedule: Q01DX005 (ip), vehicle: saline with Tween-80
[8] = dose: 120.0 mg/kg/injection, schedule: Q01DX005 (ip), vehicle: saline with Tween-80
[9] = dose: 240.0 mg/kg/injection, schedule: Q01DX005 (ip), vehicle: saline with Tween-80

Measured: T/C

ClC(Cl)=[C](Cl)[Hg][C](Cl)=C(Cl)Cl
inactive: dose: 3.13 mg/kg/injection, schedule: Q01DX009 (ip), vehicle: Klucel (hydroxypropylcellulose) (HPC) 105 % of control | dose: 6.25 mg/kg/injection, schedule: Q01DX009 (ip), vehicle: Klucel (hydroxypropylcellulose) (HPC) 100 % of control | dose: 12.5 mg/kg/injection, schedule: Q01DX009 (ip), vehicle: Klucel (hydroxypropylcellulose) (HPC) 97 % of control

Nc1ncnc2c1c1c(=O)[nH]c(=O)[nH]c1n2C1OC(CO)C(O)C1O (centres undefined)
inactive: dose: 25.0 mg/kg/injection, schedule: Q01DX005 (ip), vehicle: distilled water + Tween-80 113 % of control | dose: 50.0 mg/kg/injection, schedule: Q01DX005 (ip), vehicle: distilled water + Tween-80 110 % of control | dose: 100.0 mg/kg/injection, schedule: Q01DX005 (ip), vehicle: distilled water + Tween-80 111 % of control | dose: 200.0 mg/kg/injection, schedule: Q01DX005 (ip), vehicle: distilled water + Tween-80 111 % of control | dose: 400.0 mg/kg/injection, schedule: Q01DX005 (ip), vehicle: distilled water + Tween-80 121 % of control

CCN(CC)C1=NS(=O)(=O)c2ccccc2C(=O)C1C (centres undefined)
inactive: dose: 100.0 mg/kg/injection, schedule: Q04DX002 (ip), vehicle: Klucel (hydroxypropylcellulose) (HPC) 102 % of control | dose: 200.0 mg/kg/injection, schedule: Q04DX002 (ip), vehicle: Klucel (hydroxypropylcellulose) (HPC) 100 % of control | dose: 400.0 mg/kg/injection, schedule: Q04DX002 (ip), vehicle: Klucel (hydroxypropylcellulose) (HPC) 100 % of control

O/N=C1/C(=N/O)N(c2ccccc2)CCN1c1ccccc1
inactive: dose: 50.0 mg/kg/injection, schedule: Q01DX005 (ip), vehicle: saline with Tween-80 99 % of control | dose: 100.0 mg/kg/injection, schedule: Q01DX005 (ip), vehicle: saline with Tween-80 100 % of control | dose: 200.0 mg/kg/injection, schedule: Q01DX005 (ip), vehicle: saline with Tween-80 92 % of control

OCCSc1c(Cl)c(Cl)c(Cl)c(Cl)c1Cl
inactive: dose: 100.0 mg/kg/injection, schedule: Q01DX009 (ip), vehicle: saline with Tween-80 106 % of control | dose: 200.0 mg/kg/injection, schedule: Q01DX009 (ip), vehicle: saline with Tween-80 113 % of control

O=C1Nc2ccccc2SC1c1ccccc1Cl (centres undefined)
inactive: dose: 6.25 mg/kg/injection, schedule: Q01DX009 (ip), vehicle: saline 96 % of control | dose: 12.5 mg/kg/injection, schedule: Q01DX009 (ip), vehicle: saline 99 % of control | dose: 25.0 mg/kg/injection, schedule: Q01DX009 (ip), vehicle: saline 105 % of control | dose: 50.0 mg/kg/injection, schedule: Q01DX009 (ip), vehicle: saline 106 % of control and 93 % of control | dose: 100.0 mg/kg/injection, schedule: Q01DX009 (ip), vehicle: saline 102 % of control | dose: 200.0 mg/kg/injection, schedule: Q01DX009 (ip), vehicle: saline 105 % of control | dose: 400.0 mg/kg/injection, schedule: Q01DX009 (ip), vehicle: saline 113 % of control

CCSc1nsc(NC(C)=O)n1
inactive: dose: 100.0 mg/kg/injection, schedule: Q01DX001 (ip), vehicle: Klucel (hydroxypropylcellulose) (HPC) 104 % of control | dose: 200.0 mg/kg/injection, schedule: Q01DX001 (ip), vehicle: Klucel (hydroxypropylcellulose) (HPC) 96 % of control | dose: 400.0 mg/kg/injection, schedule: Q01DX001 (ip), vehicle: Klucel (hydroxypropylcellulose) (HPC) 102 % of control

C=C1C(=O)OC2C1CCC1(C)CC(Br)C(=O)C(C)C21 (centres undefined)
inactive: [1] 104 % of control and 108 % of control and 95 % of control | [2] 100 % of control and 111 % of control and 112 % of control | [3] 106 % of control and 108 % of control | dose: 400.0 mg/kg/injection, schedule: Q04DX002 (ip), vehicle: saline with Tween-80 104 % of control

O=C(NC(CCSSCCC(NC(=O)OCc1ccccc1)C(=O)OCc1ccccc1)C(=O)OCc1ccccc1)OCc1ccccc1 (centres undefined)
inactive: dose: 12.5 mg/kg/injection, schedule: Q01DX009 (ip), vehicle: other 91 % of control | dose: 25.0 mg/kg/injection, schedule: Q01DX009 (ip), vehicle: other 98 % of control | dose: 50.0 mg/kg/injection, schedule: Q01DX009 (ip), vehicle: other 94 % of control | dose: 100.0 mg/kg/injection, schedule: Q01DX009 (ip), vehicle: other 98 % of control | dose: 200.0 mg/kg/injection, schedule: Q01DX009 (ip), vehicle: other 100 % of control

CC(=O)c1c(OCC(O)CN2CCN(C)CC2)cccc1OCC(O)CN1CCN(C)CC1 (centres undefined)
inactive: dose: 6.25 mg/kg/injection, schedule: Q01DX005 (ip), vehicle: saline 105 % of control | dose: 12.5 mg/kg/injection, schedule: Q01DX005 (ip), vehicle: saline 101 % of control | dose: 25.0 mg/kg/injection, schedule: Q01DX005 (ip), vehicle: saline 105 % of control

CCOC(=O)C1=C(C(C)=O)C(c2ccccc2[N+](=O)[O-])C(C(C)=O)=C(C(=O)OCC)N1
inactive: dose: 60.0 mg/kg/injection, schedule: Q01DX005 (ip), vehicle: saline 104 % of control | dose: 120.0 mg/kg/injection, schedule: Q01DX005 (ip), vehicle: saline 105 % of control | dose: 240.0 mg/kg/injection, schedule: Q01DX005 (ip), vehicle: saline 96 % of control

O=C=N[Si](c1ccccc1)(c1ccccc1)c1ccccc1
inactive: dose: 100.0 mg/kg/injection, schedule: Q01DX001 (ip), vehicle: saline with Tween-80 96 % of control | dose: 200.0 mg/kg/injection, schedule: Q01DX001 (ip), vehicle: saline with Tween-80 89 % of control

Cc1nc2ccccc2c(=O)n1-c1ccc(-c2nnc(Sc3nnc(-c4ccc(-n5c(C)nc6ccccc6c5=O)cc4)n3-c3ccccc3)n2-c2ccccc2)cc1
inactive: [4] 102 % of control | [5] 101 % of control | [6] 90 % of control

O=C1OC(c2cccc(Cl)c2)=N/C1=C\C=C/c1ccccc1
inactive: dose: 50.0 mg/kg/injection, schedule: Q01DX009 (ip), vehicle: suspension in saline 93 % of control | dose: 100.0 mg/kg/injection, schedule: Q01DX009 (ip), vehicle: suspension in saline 93 % of control

CCOC(=O)OCC1=Nc2cccc3cccc(c23)N1
inactive: [4] 100 % of control | [5] 110 % of control | [6] 108 % of control

CN(C)c1ccc(Cc2c[nH]c3ccccc3c2=O)cc1
inactive: [7] 94 % of control | [8] 92 % of control | [9] 95 % of control

COc1ccc(Cc2n[nH]c(=S)n2-c2cc(C)ccc2C)cc1OC
inactive: [7] 102 % of control | [8] 91 % of control | [9] 93 % of control

C=C1CCOC1=O
inactive: [1] 97 % of control | [2] 105 % of control | [3] 105 % of control

CCCCCCCCCCCCCCP(I)(N(C)C)(N(C)C)N(C)C
inactive: dose: 0.1 mg/kg/injection, schedule: Q01DX009 (ip), vehicle: saline with Tween-80 106 % of control | dose: 0.19 mg/kg/injection, schedule: Q01DX009 (ip), vehicle: saline with Tween-80 113 % of control | dose: 0.38 mg/kg/injection, schedule: Q01DX009 (ip), vehicle: saline with Tween-80 117 % of control

CCN=C=NCCCN(C)C
inactive: dose: 7.5 mg/kg/injection, schedule: Q01DX009 (ip), vehicle: saline 108 % of control | dose: 7.5 mg/kg/injection, schedule: Q04DX003 (ip), vehicle: saline 102 % of control | dose: 15.0 mg/kg/injection, schedule: Q01DX009 (ip), vehicle: saline 108 % of control | dose: 15.0 mg/kg/injection, schedule: Q04DX003 (ip), vehicle: saline 99 % of control | dose: 30.0 mg/kg/injection, schedule: Q01DX009 (ip), vehicle: saline 105 % of control | dose: 30.0 mg/kg/injection, schedule: Q04DX003 (ip), vehicle: saline 98 % of control | dose: 60.0 mg/kg/injection, schedule: Q01DX009 (ip), vehicle: saline 107 % of control

O=C1CC2(C(=O)NN1)C1=C(c3ccccc3CC1)N1CCCC12 (centres undefined)
inactive: dose: 11.25 mg/kg/injection, schedule: Q01DX009 (ip), vehicle: Klucel (hydroxypropylcellulose) (HPC) 100 % of control | dose: 22.5 mg/kg/injection, schedule: Q01DX009 (ip), vehicle: Klucel (hydroxypropylcellulose) (HPC) 102 % of control | dose: 45.0 mg/kg/injection, schedule: Q01DX009 (ip), vehicle: Klucel (hydroxypropylcellulose) (HPC) 100 % of control | dose: 90.0 mg/kg/injection, schedule: Q01DX009 (ip), vehicle: Klucel (hydroxypropylcellulose) (HPC) 100 % of control
